The values below come from US20100048511A1, “COMPLEX FORMULATION FOR PREVENTING OR TREATING OSTEOPOROSIS WHICH COMPRISES SOLID DISPERSION OF VITAMIN D OR ITS DERIVATIVE AND BISPHOSPHONATE” (priority 2006, published 2010).

A short description of data set [1]: Stability test of the solid dispersion comprising vitamin D (cholecalciferol content by HPLC, 60° C. dried oven). The format is physicochemical. How it is done:
The time-dependent change of the cholecalciferol content of each test material was analyzed using the solid dispersions prepared in Comparative Example 2 (0.07 mg of cholecalciferol) and Examples 1 to 4 as test materials, during the period of incubating the test materials in a 60° C. dried oven.
Each test material was pretreated as follows, before the analysis of cholecalciferol.
Each test material was taken in the amount corresponding to about 28 mg cholecalciferol and placed in a 50 ml flask, 5 ml of 0.01 M HCl was added thereto, the mixture was ultrasonicated for 3 minutes, and the flask was filled with ethanol. 15 ml of the resulting solution was mixed with 5 ml of purified water and 20 ml of n-hexane for 5 minutes, and centrifuged at 2000 rpm for 5 minutes. 10 ml of the supernatant was harvested, evaporated under a reduced pressure, and 2 ml of n-hexane was added thereto. The cholecalciferol content of each test material was analyzed by HPLC under the following conditions. The results are shown in Table 7. • Column: silica column (5 μm, 4.6 mm×250 mm) • Mobile phase: (chloroform: n-hexane: tetrahydrofuran=650:350:10 (v/v)) • Injecting volume: 100 μl • Flow rate: 1.0 ml/min • Detector: ultraviolet spectrophotometer (wavelength: 254 nm; L-7400, HITACHI, Japan)

The conditions of data set [2]: preserved at 40° C. for 4 days; cited from earlier work.

Each structure is given as a SMILES string.

As for `C=C1CC[C@H](O)C/C1=C/C=C1\CCC[C@]2(C)[C@@H]([C@H](C)CCCC(C)C)CC[C@@H]12` [Comparative Example 2, cholecalciferol], the cholecalciferol content was found to be 3.3% in data set [1] (2 weeks), 0.0% in data set [1] (4 weeks) and 100% in data set [1] (incubation time 0).
With `C=C1CC[C@H](O)C/C1=C/C=C1\CCC[C@]2(C)[C@@H]([C@H](C)CCCC(C)C)CC[C@@H]12` [vitamin D3, cholecalciferol], in data set [2], the “content of vitamin D3 in the formulation, of the original content” value was “about 86.3%”.
